The test system of this assay is CEM cells HIV-1 protection, formazan growth assay. Put plainly: NCI AIDS Antiviral Assay. Particulars: for IC50: measured here: growth of uninfected CEM cells. An outline of the steps: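 Protection of CEM cells against HIV-1 measured as cell growth via soluble formazan read-out, with five concentrations tested on both infected and uninfected cells; failure to protect may reflect toxicity.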

Results on 26 compounds are retold here after PubChem BioAssay AID179 (DTP/NCI, 2004).

The EC50 is the midpoint of the concentration-response curve. The term IC50 denotes the concentration that gives 50% inhibition.

Activity calls are given as the source filed them.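 How the source made its calls: active means compounds giving half or more protection of infected cells from virus-caused growth loss, again on retest; inactive means the rest.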 Where a SMILES comes first, the peptide text is derived from it.

Turning to `C#CCN1C(=O)c2ccccc2S1(=O)=O`, the EC50 is above 200 µM and the IC50 was above 200 µM.

As for `CCCCCCN(CCCCCC)CC(=O)Nc1ccc(S(=O)(=O)c2ccc(NC(=O)CN(CCCCCC)CCCCCC)cc2)cc1`, the EC50 was above 200 µM and the IC50 came to 11.5 µM.

As to `Cc1cccc(C)c1NC(=O)CCCC(=O)C(C#N)c1ccc(Cl)cc1` (stereo not drawn), the EC50 is above 135 µM and the IC50 is above 135 µM.

For the compound `CN(O)C(=O)CCCC(=O)NCC(C)(C)CNC(=O)CCCC(=O)N(C)O`, the EC50 is above 200 µM and the IC50 was above 200 µM.

With `S=C(S)N1CCN(c2cccc(Cl)c2)CC1`, the EC50 was above 200 µM and the IC50 was 182 µM.

As to `c1ccc(Cc2nnc3n2CCC(c2ccccc2)S3)cc1` (stereo not drawn), the EC50 is above 200 µM and the IC50 is above 200 µM.

As to `[Br][Ni][Br].[NH-]CC[NH-].[NH-]CC[NH-]`, the EC50 is above 200 µM and the IC50 came to 67.6 µM.

Consider `O=C(/N=C(\c1ccc(F)cc1)c1ccsc1-n1cccc1)Nc1ccccc1`, for which the EC50 is above 200 µM and the IC50 was determined as 4.9 µM.

Take `O=C(/C=C/c1ccc(O)c(O)c1)OCCc1cccc2ccccc12`: the EC50 was above 200 µM and the IC50 came to 2.75 µM.

In the case of `CC(C)(C)C1=CC(=Nc2ccc([N+](=O)[O-])cc2[N+](=O)[O-])C=C(C(C)(C)C)C1=O`, the EC50 is above 13.5 µM and the IC50 is above 13.5 µM.

Consider `COc1cc(/C=C2\C(=O)N(c3cccc(Cl)c3)C(c3ccccc3)S2(=O)=O)cc(OC)c1OC` (stereo not drawn), for which the EC50 is above 200 µM and the IC50 stood at 112 µM.

In the case of `Cc1cccc(C(C)C)c1NC(=O)C(=O)CC(=O)c1c(C)n([O-])c2ccccc2[n+]1=O`, the EC50 is above 85.1 µM and the IC50 stood at 17 µM.

As to `CC1=NN(C(=O)Cc2ccccc2)C(=O)/C1=C\c1ccc(O)cc1`, the EC50 was above 16.2 µM and the IC50 was above 16.2 µM.

Take `N#C/C(=C\c1cc2ccccc2c2ccccc12)c1ccccc1`: the EC50 was above 12.3 µM and the IC50 was 6.46 µM.

For `NC(=O)N/N=C1/CC2CCCCC2c2ccccc21` (stereo not drawn), the EC50 was above 200 µM and the IC50 amounted to 34.7 µM.

Consider `COC(=O)c1ccc(-c2nc(C#N)c(N)o2)cc1`, for which the EC50 was above 200 µM and the concentration for half-maximal inhibition (IC50) was above 200 µM.

For `O=[N+]([O-])C1(CO)COC2(OC1)c1ccccc1-c1ccccc12`, the result was inactive.

For `Cc1cnc2c(Nc3ccc(Cl)cc3)cc(N)nc2n1`, the EC50 is above 120 µM and the IC50 stood at 4.47 µM.

Consider `N#Cc1ccc(-c2nc3c(N)ncnc3o2)cc1`, for which the EC50 is above 200 µM and the concentration for half-maximal inhibition (IC50) was above 200 µM.

As to `COc1cc(NC=O)c2c(c1)SC(C)C(=O)N2` (stereo not drawn), the EC50 is 141 µM and the IC50 was above 200 µM.

As for `C=C(C)[C@]12CC(C)C34OC(/C=C\C=C\CCCCCCCCC)(O[C@@H]1[C@@H]3[C@@H]1O[C@]1(CO)[C@@H](O)[C@]1(O)C(=O)C(C)=C[C@@H]41)O2` (stereo partly drawn), the EC50 was above 0.2 µM and the IC50 worked out at 0.00389 µM.

`COc1ccc2cc1Oc1ccc(cc1)C[C@@H]1c3cc(c(OC)cc3CCN1C)Oc1c(OC)c(OC)cc3c1[C@@H](C2)N(C)CC3`: the result was inactive.

For the compound `CCC(C)C(NC(=O)CNC(=O)C(C)NC(=O)CNC(=O)C(NC(=O)C(NC(=O)C(CO)NC(=O)C(Cc1cnc[nH]1)NC(=O)C(N)CCCCN)C(C)CC)C(C)CC)C(=O)NC(CCCCN)C(=O)NC(CCCCN)C(=O)NC(CCCN=C(N)N)C(=O)NC(Cc1ccccc1)C(=O)NC(CC(C)C)C(=O)NC(CCC(N)=O)C(=O)O` (stereo not drawn) (H-KHSIIGAGIKKRFLQ-OH; configuration not given here), the result was inactive.

As for `CC(=O)OC12CC(C)C3(O)C4C=C(C)C(=O)[C@@]4(O)CC(CO)=C[C@H]3C1C2(C)C` (stereo partly drawn), the outcome was active.

For the compound `CCOC(=O)C1SC(=Nc2ccc(OC)c(OC)c2)N=C1C` (stereo not drawn), the EC50 is above 22.4 µM and the half-maximal inhibitory concentration (IC50) is above 22.4 µM.

As for `Cn1cc(C(=O)c2ccccc2)ccc1=O`, the EC50 is above 617 µM and the IC50 came to 479 µM.
